In brackets after ≈: the same amount, converted by molar mass.

The record followed here is patent US12552825B2 (Zikani Therapeutics, Inc., priority 2019, dated 2026).

Format in all cases: cell-based
The test system of assay [1] is S. aureus MP-12. Put plainly: microbe, parasite or virus in culture. Conditions: Staphylococcus aureus, MP12, read-out: MIC S. aureus MP-12.
In assay [2] the test system is E. coli MP-4. As to the kind of experiment: MIC determination by CLSI broth dilution, E. coli MP-4. The settings on record: Escherichia coli, MP4, CLSI broth dilution; strain MP-4. A general note: In broth dilution the organism is exposed to a series of concentrations in liquid medium.
The subject of assay [3] is K. pneumoniae MP-546. Put plainly: MIC determination by CLSI broth dilution, K. pneumoniae MP-546. Conditions: Klebsiella pneumoniae, MP546, CLSI broth dilution; strain MP-546.
For assay [4], the system named is K. pneumoniae MP-648. Put plainly: MIC determination by CLSI broth dilution, K. pneumoniae MP-648. Conditions: Klebsiella pneumoniae, MP648, CLSI broth dilution; strain MP-648.
In assay [5] the test system is P. aeruginosa MP-3. Put plainly: MIC determination by CLSI broth dilution, P. aeruginosa MP-3. The settings on record: Pseudomonas aeruginosa, MP3, strain MP-3.
Assay [6] deals with A. baumannii MP-15. As to the kind of experiment: MIC determination by CLSI broth dilution, A. baumannii MP-15. Conditions: Acinetobacter baumannii, MP15, strain MP-15, read-out: MIC A. baumanii MP-15.

Take `CCCN1C[C@H](C)C[C@@](C)(OC)[C@H](O[C@@H]2O[C@H](C)C[C@H](N(C)C)[C@H]2O)[C@@H](C)C(=O)C(C)(C)C(=O)OC[C@H]1CCCN(C)C` [Compound 21, (3R,6R,8R,9R,10R)-9-(((2S,3R,4S,6R)-4-(dimethylamino)-3-hydroxy-6-methyltetrahydro-2H-pyran-2-yl)oxy)-3-(3-(dimethylamino)propyl)-8-methoxy-6,8,10,12,12-pentamethyl-4-propyl-1-oxa-4-azacyclotridecane-11,13-dione]: the MIC was 4 to 32 µg/mL (≈ 6.52 to 52.1 µM) in assay [1]; under 4 µg/mL in assay [2]; under 4 µg/mL in assay [3]; under 4 µg/mL in assay [4]; under 4 µg/mL in assay [5]; over 32 µg/mL in assay [6].
Take `CO[C@]1(C)C[C@@H](C)CN(C)[C@H](CCCN2CCCC2)COC(=O)C(C)(C)C(=O)[C@H](C)[C@H]1O[C@@H]1O[C@H](C)C[C@H](N(C)C)[C@H]1O` [Compound 161, (3R,6R,8R,9R,10R)-9-(((2S,3R,4S,6R)-4-(dimethylamino)-3-hydroxy-6-methyltetrahydro-2H-pyran-2-yl)oxy)-8-methoxy-4,6,8,10,12,12-hexamethyl-3-(3-(pyrrolidin-1-yl)propyl)-1-oxa-4-azacyclotridecane-11,13-dione]: the MIC in assay [1] is under 4 µg/mL; in assay [2], under 4 µg/mL; in assay [3], under 4 µg/mL; in assay [4], under 4 µg/mL; in assay [5], 4 to 32 µg/mL (≈ 6.54 to 52.3 µM); in assay [6] it was over 32 µg/mL.
Take `CCCN1CCC(C[C@@H]2COC(=O)C(C)(C)C(=O)[C@H](C)[C@@H](O[C@@H]3O[C@H](C)C[C@H](N(C)C)[C@H]3O)[C@](C)(OC)C[C@@H](C)CN2CC)CC1` [Compound 102, (3R,6R,8R,9R,10R)-9-(((2S,3R,4S,6R)-4-(dimethylamino)-3-hydroxy-6-methyltetrahydro-2H-pyran-2-yl)oxy)-4-ethyl-8-methoxy-6,8,10,12,12-pentamethyl-3-((1-propylpiperidin-4-yl)methyl)-1-oxa-4-azacyclotridecane-11,13-dione]: the MIC was 4 to 32 µg/mL (≈ 6.12 to 48.9 µM) in assay [1]; under 4 µg/mL in assay [2]; under 4 µg/mL in assay [3]; under 4 µg/mL in assay [4]; over 32 µg/mL in assay [5]; 4 to 32 µg/mL (≈ 6.12 to 48.9 µM) in assay [6].
On to `CCCN1C[C@H](C)C[C@@](C)(OC)[C@H](O[C@@H]2O[C@H](C)C[C@H](N(C)C)[C@H]2O)[C@@H](C)C(=O)C(C)(C)C(=O)OC[C@@H]1CCCN1Cc2ccccc2C1` [Compound 126, (3S,6R,8R,9R,10R)-9-(((2S,3R,4S,6R)-4-(dimethylamino)-3-hydroxy-6-methyltetrahydro-2H-pyran-2-yl)oxy)-3-(3-(isoindolin-2-yl)propyl)-8-methoxy-6,8,10,12,12-pentamethyl-4-propyl-1-oxa-4-azacyclotridecane-11,13-dione], for which the MIC in assay [1] was under 4 µg/mL; in assay [2], under 4 µg/mL; in assay [3], under 4 µg/mL; in assay [4], under 4 µg/mL; in assay [5], over 32 µg/mL; in assay [6], 4 to 32 µg/mL (≈ 5.81 to 46.5 µM).
`CO[C@]1(C)C[C@@H](C)CN(C)[C@@H](CCCN2CCC(O)CC2)COC(=O)C(C)(C)C(=O)[C@H](C)[C@H]1O[C@@H]1O[C@H](C)C[C@H](N(C)C)[C@H]1O` [Compound 92, (3S,6R,8R,9R,10R)-9-(((2S,3R,4S,6R)-4-(dimethylamino)-3-hydroxy-6-methyltetrahydro-2H-pyran-2-yl)oxy)-3-(3-(4-hydroxypiperidin-1-yl)propyl)-8-methoxy-4,6,8,10,12,12-hexamethyl-1-oxa-4-azacyclotridecane-11,13-dione]: the MIC in assay [1] is over 32 µg/mL; in assay [2], under 4 µg/mL; in assay [3], 4 to 32 µg/mL (≈ 6.23 to 49.9 µM); in assay [4], 4 to 32 µg/mL (≈ 6.23 to 49.9 µM); in assay [5], over 32 µg/mL; in assay [6], over 32 µg/mL.
For `CO[C@]1(C)C[C@@H](C)CN(C)[C@H](CCCN(C)C(C)C)COC(=O)C(C)(C)C(=O)[C@H](C)[C@H]1O[C@@H]1O[C@H](C)C[C@H](N(C)C)[C@H]1O` [Compound 12, (3R,6R,8R,9R,10R)-9-(((2S,3R,4S,6R)-4-(dimethylamino)-3-hydroxy-6-methyltetrahydro-2H-pyran-2-yl)oxy)-3-(3-(isopropyl(methyl)amino)propyl)-8-methoxy-4,6,8,10,12,12-hexamethyl-1-oxa-4-azacyclotridecane-11,13-dione], the MIC in assay [1] was 4 to 32 µg/mL (≈ 6.52 to 52.1 µM); in assay [2] it was under 4 µg/mL; in assay [3], under 4 µg/mL; in assay [4] it was under 4 µg/mL; in assay [5], over 32 µg/mL; in assay [6] it was over 32 µg/mL.
With `CO[C@]1(C)C[C@@H](C)CN(C)[C@@H](CCCN2CCC2)COC(=O)C(C)(C)C(=O)[C@H](C)[C@H]1O[C@@H]1O[C@H](C)C[C@H](N(C)C)[C@H]1O` [Compound 160, (3S,6R,8R,9R,10R)-3-(3-(azetidin-1-yl)propyl)-9-(((2S,3R,4S,6R)-4-(dimethylamino)-3-hydroxy-6-methyltetrahydro-2H-pyran-2-yl)oxy)-8-methoxy-4,6,8,10,12,12-hexamethyl-1-oxa-4-azacyclotridecane-11,13-dione], the MIC in assay [1] is 4 to 32 µg/mL (≈ 6.69 to 53.5 µM); in assay [2], under 4 µg/mL; in assay [3], under 4 µg/mL; in assay [4], 4 to 32 µg/mL (≈ 6.69 to 53.5 µM); in assay [5], over 32 µg/mL; in assay [6], over 32 µg/mL.
Regarding `CO[C@]1(C)C[C@@H](C)CN(C)[C@@H]([C@H](O)C2CCN(CC3CC3)CC2)COC(=O)C(C)(C)C(=O)[C@H](C)[C@H]1O[C@@H]1O[C@H](C)C[C@H](N(C)C)[C@H]1O` [Compound 23, (3R,6R,8R,9R,10R)-3-((R)-(1-(cyclopropylmethyl)piperidin-4-yl)(hydroxy)methyl)-9-(((2S,3R,4S,6R)-4-(dimethylamino)-3-hydroxy-6-methyltetrahydro-2H-pyran-2-yl)oxy)-8-methoxy-4,6,8,10,12,12-hexamethyl-1-oxa-4-azacyclotridecane-11,13-dione], the MIC is 4 to 32 µg/mL (≈ 5.99 to 47.9 µM) in assay [1]; 4 to 32 µg/mL (≈ 5.99 to 47.9 µM) in assay [2]; 4 to 32 µg/mL (≈ 5.99 to 47.9 µM) in assay [3]; 4 to 32 µg/mL (≈ 5.99 to 47.9 µM) in assay [4]; over 32 µg/mL in assay [5]; over 32 µg/mL in assay [6].
`CO[C@]1(C)C[C@@H](C)CN(C)[C@H](CC2CCN(C=O)CC2)COC(=O)C(C)(C)C(=O)[C@H](C)[C@H]1O[C@@H]1O[C@H](C)C[C@H](N(C)C)[C@H]1O` [Compound 64]: the MIC in assay [1], in assay [2], in assay [3], in assay [4], in assay [5] and in assay [6] was over 32 µg/mL in each case.
For the molecule `CO[C@]1(C)C[C@@H](C)CN(C)[C@H]([C@H](O)CCN2CCCC2)COC(=O)C(C)(C)C(=O)[C@H](C)[C@H]1O[C@@H]1O[C@H](C)C[C@H](N(C)C)[C@H]1O` [Compound 78, (3S,6R,8R,9R,10R)-9-(((2S,3R,4S,6R)-4-(Dimethylamino)-3-hydroxy-6-methyltetrahydro-2H-pyran-2-yl)oxy)-3-((R)-1-hydroxy-3-(pyrrolidin-1-yl)propyl)-8-methoxy-4,6,8,10,12,12-hexamethyl-1-oxa-4-azacyclotridecane-11,13-dione], the MIC is under 4 µg/mL in assay [1]; under 4 µg/mL in assay [2]; under 4 µg/mL in assay [3]; under 4 µg/mL in assay [4]; over 32 µg/mL in assay [5]; over 32 µg/mL in assay [6].
Turning to `CO[C@]1(C)C[C@@H](C)CN(C)[C@H]([C@@H](O)C2CCN(C(C)C)CC2)COC(=O)C(C)(C)C(=O)[C@H](C)[C@H]1O[C@@H]1O[C@H](C)C[C@H](N(C)C)[C@H]1O` [Compound 27], the MIC is over 32 µg/mL in assay [1]; 4 to 32 µg/mL (≈ 6.1 to 48.8 µM) in assay [2]; 4 to 32 µg/mL (≈ 6.1 to 48.8 µM) in assay [3]; over 32 µg/mL in assay [4]; over 32 µg/mL in assay [5]; over 32 µg/mL in assay [6].
Turning to `CCN1C[C@H](C)C[C@@](C)(OC)[C@H](O[C@@H]2O[C@H](C)C[C@H](N(C)C)[C@H]2O)[C@@H](C)C(=O)C(C)(C)C(=O)OC[C@H]1CC1CCN(C)CC1` [Compound 98, (3R,6R,8R,9R,10R)-9-(((2S,3R,4S,6R)-4-(dimethylamino)-3-hydroxy-6-methyltetrahydro-2H-pyran-2-yl)oxy)-4-ethyl-8-methoxy-6,8,10,12,12-pentamethyl-3-((1-methylpiperidin-4-yl)methyl)-1-oxa-4-azacyclotridecane-11,13-dione], the MIC is 4 to 32 µg/mL (≈ 6.39 to 51.1 µM) in assay [1]; under 4 µg/mL in assay [2]; under 4 µg/mL in assay [3]; under 4 µg/mL in assay [4]; over 32 µg/mL in assay [5]; over 32 µg/mL in assay [6].
In the case of `COCCCN1CCC(C[C@@H]2COC(=O)C(C)(C)C(=O)[C@H](C)[C@@H](O[C@@H]3O[C@H](C)C[C@H](N(C)C)[C@H]3O)[C@](C)(OC)C[C@@H](C)CN2C)CC1` [Compound 50], the MIC in assay [1] is 4 to 32 µg/mL (≈ 5.97 to 47.8 µM); in assay [2], under 4 µg/mL; in assay [3], under 4 µg/mL; in assay [4], under 4 µg/mL; in assay [5] it was over 32 µg/mL; in assay [6] it was over 32 µg/mL.
With `CO[C@]1(C)C[C@@H](C)CN(C)[C@H](C[C@H]2C[C@H](N(C)C)C2)COC(=O)C(C)(C)C(=O)[C@H](C)[C@H]1O[C@@H]1O[C@H](C)C[C@H](N(C)C)[C@H]1O` [Compound 111, (3R,6R,8R,9R,10R)-9-(((2S,3R,4S,6R)-4-(Dimethylamino)-3-hydroxy-6-methyltetrahydro-2H-pyran-2-yl)oxy)-3-(((1r,3S)-3-(dimethylamino)cyclobutyl)methyl)-8-methoxy-4,6,8,10,12,12-hexamethyl-1-oxa-4-azacyclotridecane-11,13-dione], the MIC is 4 to 32 µg/mL (≈ 6.54 to 52.3 µM) in assay [1]; under 4 µg/mL in assay [2]; under 4 µg/mL in assay [3]; under 4 µg/mL in assay [4]; over 32 µg/mL in assay [5]; over 32 µg/mL in assay [6].
